Experimental data taken from PMC8445441, “Elucidating the mechanism by which synthetic helper peptides sensitize Pseudomonas aeruginosa to multiple antibiotics” (PLoS Pathogens, 2021).
Like-named read-outs stand apart in the source and are kept apart here.

Columns and labels:
[1] = test system: clinical P. aeruginosa isolates; test: microbe, parasite or virus in culture; details: Pseudomonas aeruginosa, 18 h, antibiotic alone
Outline: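 MIC is the lowest drug concentration showing no visible growth after 18 h at 37 °C. Two-fold dilutions in MHB were combined with an equal volume of bacterial suspension (about 1 × 10^6 CFU/mL), following CLSI broth microdilution, in triplicate.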

P. aeruginosa HM-214 = details: strain HM-214; antibiotic + D-11 (MICb/MICbc 128/4)
Outline: (§1)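 After 18 h at 37 °C, the lowest concentration showing no visible growth was read as the MIC. Drugs were serially diluted two-fold in MHB and combined with an equal volume of inoculum (~1 × 10^6 CFU/mL), following CLSI broth microdilution; run in triplicate.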

P. aeruginosa AUMC-Pa-1 = details: strain AUMC-Pa-1; antibiotic + D-11 (MICb/MICbc 128/4)
Outline: as §1

P. aeruginosa AUMC-Pa-2 = details: strain AUMC-Pa-2; antibiotic + D-11 (MICb/MICbc 64/4)
Outline: as §1

P. aeruginosa AUMC-Pa-3 = test: microbe, parasite or virus in culture; details: for MIC: Pseudomonas aeruginosa, AUMCPA3, 18 h, read-out: MICa: MIC of the antibiotic; for FICI / MICac: MIC of the antibiotic in the combination: strain AUMC-Pa-3; for FICI: antibiotic + D-11 (MICb/MICbc 128/4); for MICac: MIC of the antibiotic in the combination: with D-11 at MICbc 4, unit not given
Outline: as §1

P. aeruginosa AUMC-Pa-6 = test: microbe, parasite or virus in culture; details: for MIC: Pseudomonas aeruginosa, AUMCPA6, 18 h, read-out: MICa: MIC of the antibiotic; for FICI / MICac: MIC of the antibiotic in the combination: strain AUMC-Pa-6; for FICI: antibiotic + D-11 (MICb/MICbc 64/4); for MICac: MIC of the antibiotic in the combination: with D-11 at MICbc 4, unit not given
Outline: as §1

P. aeruginosa AUMC-Pa-5 = test: microbe, parasite or virus in culture; details: for MIC: Pseudomonas aeruginosa, AUMCPA5, 18 h, read-out: MICa: MIC of the antibiotic; for FICI / MICac: MIC of the antibiotic in the combination: strain AUMC-Pa-5; for FICI: antibiotic + D-11 (MICb/MICbc 64/4); for MICac: MIC of the antibiotic in the combination: with D-11 at MICbc 4, unit not given
Outline: as §1

P. aeruginosa PAO1 = test: microbe, parasite or virus in culture; details: PAO1; for MIC: Pseudomonas aeruginosa, PAO1, 18 h, read-out: MICa: the MIC of antibiotics, S3 Table, antibiotic alone; for FICI / MICac: the MIC for the antibiotic in the combination: S3 Table
Outline: as §1

P. aeruginosa AUMC-Pa-4 = test: microbe, parasite or virus in culture; details: for MIC: Pseudomonas aeruginosa, AUMCPA4, 18 h, read-out: MICa: MIC of the antibiotic; for FICI / MICac: MIC of the antibiotic in the combination: strain AUMC-Pa-4; for FICI: antibiotic + D-11 (MICb/MICbc 128/4); for MICac: MIC of the antibiotic in the combination: with D-11 at MICbc 4, unit not given
Outline: as §1

P. aeruginosa PA14 = test: microbe, parasite or virus in culture; parameters: MICa: MIC of the antibiotic / MICac: MIC of the antibiotic in the combination: unit not given beside the values; details: for FICI: antibiotic + D-11 (MICb/MICbc 128/4); for MICac: MIC of the antibiotic in the combination: with D-11 at MICbc 4
Outline: as §1

P. aeruginosa ATCC27853 = test: microbe, parasite or virus in culture; parameters: MICa: MIC of the antibiotic / MICac: MIC of the antibiotic in the combination: unit not given beside the values; details: for FICI: antibiotic + D-11 (MICb/MICbc 32/4); for MICac: MIC of the antibiotic in the combination: with D-11 at MICbc 4
Outline: as §1

P. aeruginosa NR-31041 = test: microbe, parasite or virus in culture; parameters: MICa: MIC of the antibiotic / MICac: MIC of the antibiotic in the combination: unit not given beside the values; details: for MIC: Pseudomonas aeruginosa, NR31041, 18 h, read-out: MICa: MIC of the antibiotic; for FICI / MICac: MIC of the antibiotic in the combination: strain NR-31041; for FICI: antibiotic + D-11 (MICb/MICbc 64/4); for MICac: MIC of the antibiotic in the combination: with D-11 at MICbc 4, unit not given
Outline: as §1

P. aeruginosa PAK = test: microbe, parasite or virus in culture; parameters: MICa: MIC of the antibiotic / MICac: MIC of the antibiotic in the combination: unit not given beside the values; details: for MIC: Pseudomonas aeruginosa, 18 h, read-out: MICa: MIC of the antibiotic; for FICI / MICac: MIC of the antibiotic in the combination: strain PAK; for FICI: antibiotic + D-11 (MICb/MICbc 64/4); for MICac: MIC of the antibiotic in the combination: with D-11 at MICbc 4, unit not given
Outline: as §1

P. aeruginosa NR-31040 = test: microbe, parasite or virus in culture; parameters: MICa: MIC of the antibiotic / MICac: MIC of the antibiotic in the combination: unit not given beside the values; details: for MIC: Pseudomonas aeruginosa, NR31040, 18 h, read-out: MICa: MIC of the antibiotic; for FICI / MICac: MIC of the antibiotic in the combination: strain NR-31040; for FICI: antibiotic + D-11 (MICb/MICbc 128/4); for MICac: MIC of the antibiotic in the combination: with D-11 at MICbc 4, unit not given
Outline: as §1

[2] = read-out: Antibiotic sensibility (MIC) of clinical P. aeruginosa isolate AUMC-Pa-1, strain AUMC-Pa-1
[3] = read-out: Antibiotic sensibility (MIC) of clinical P. aeruginosa isolate AUMC-Pa-2, strain AUMC-Pa-2
[4] = read-out: Antibiotic sensibility (MIC) of clinical P. aeruginosa isolate AUMC-Pa-3, strain AUMC-Pa-3
[5] = read-out: Antibiotic sensibility (MIC) of clinical P. aeruginosa isolate AUMC-Pa-4, strain AUMC-Pa-4
[6] = read-out: Antibiotic sensibility (MIC) of clinical P. aeruginosa isolate AUMC-Pa-5, strain AUMC-Pa-5
[7] = read-out: Antibiotic sensibility (MIC) of clinical P. aeruginosa isolate AUMC-Pa-6, strain AUMC-Pa-6
[8] = read-out: Antibiotic sensibility (MIC) of clinical P. aeruginosa isolate HM-214, strain HM-214
[9] = read-out: Antibiotic sensibility (MIC) of clinical P. aeruginosa isolate NR-31040, strain NR-31040
[10] = read-out: Antibiotic sensibility (MIC) of clinical P. aeruginosa isolate NR-31041, strain NR-31041
[11] = strain ATCC27853, unit not given

Compound: C[C@@H]1O[C@@H]1P(=O)(O)O [Fosfomycin]
- MIC [1, 2]: > 128 µM
- MIC [1, 3]: 128 µM
- MIC [1, 4]: > 128 µM
- MIC [1, 5]: > 128 µM
- MIC [1, 6]: > 128 µM
- MIC [1, 7]: > 128 µM
- MIC [1, 8]: > 128 µM
- MIC [1, 9]: > 128 µM
- MIC [1, 10]: > 128 µM
- FICI (P. aeruginosa HM-214): 0.281
- FICI (P. aeruginosa AUMC-Pa-1): 0.281
- FICI (P. aeruginosa AUMC-Pa-2): 0.188
- MIC (P. aeruginosa AUMC-Pa-3): > 128 µM
- FICI (P. aeruginosa AUMC-Pa-3): 0.156
- MICac: MIC of the antibiotic in the combination (P. aeruginosa AUMC-Pa-3): 32
- MIC (P. aeruginosa AUMC-Pa-6): > 128 µM
- FICI (P. aeruginosa AUMC-Pa-6): 1.063
- MICac: MIC of the antibiotic in the combination (P. aeruginosa AUMC-Pa-6): >128/>128
- MIC (P. aeruginosa AUMC-Pa-5): > 128 µM
- FICI (P. aeruginosa AUMC-Pa-5): 0.563
- MICac: MIC of the antibiotic in the combination (P. aeruginosa AUMC-Pa-5): >128/128
- MIC (P. aeruginosa PAO1): > 128 µM
- FICI (P. aeruginosa PAO1; antibiotic + 2 μM D-11): 0.188
- FICI (P. aeruginosa PAO1; antibiotic + 4 μM D-11): 0.188
- MIC (P. aeruginosa AUMC-Pa-4): > 128 µM
- FICI (P. aeruginosa AUMC-Pa-4): 1.031
- MICac: MIC of the antibiotic in the combination (P. aeruginosa AUMC-Pa-4): >128/>128
- FICI (P. aeruginosa PA14; strain PA14): 0.281
- MICa: MIC of the antibiotic (P. aeruginosa PA14; strain PA14, antibiotic alone, unit not given): 128
- MICac: MIC of the antibiotic in the combination (P. aeruginosa PA14; strain PA14, unit not given): 32
- FICI (P. aeruginosa ATCC27853; strain ATCC27853): 0.188
- MICa: MIC of the antibiotic (P. aeruginosa ATCC27853; strain ATCC27853, antibiotic alone, unit not given): 128
- MICac: MIC of the antibiotic in the combination (P. aeruginosa ATCC27853; [11]): 8
- MIC (P. aeruginosa NR-31041): > 128 µM
- FICI (P. aeruginosa NR-31041): 0.563
- MICac: MIC of the antibiotic in the combination (P. aeruginosa NR-31041): >128/128
- MIC (P. aeruginosa PAK): > 128 µM
- FICI (P. aeruginosa PAK): 0.313
- MICac: MIC of the antibiotic in the combination (P. aeruginosa PAK): 64
- MIC (P. aeruginosa NR-31040): > 128 µM
- FICI (P. aeruginosa NR-31040): 0.531
- MICac: MIC of the antibiotic in the combination (P. aeruginosa NR-31040): >128/128

Compound: C[C@H]1COc2c(N3CCN(C)CC3)c(F)cc3c(=O)c(C(=O)O)cn1c23 [Levofloxacin]
- MIC [1, 2]: 8 µM
- MIC [1, 3]: 0.5 µM
- MIC [1, 4]: 0.5 µM
- MIC [1, 5]: 0.5 µM
- MIC [1, 6]: 0.5 µM
- MIC [1, 7]: 0.25 µM
- MIC [1, 8]: 1 µM
- MIC [1, 9]: 1 µM
- MIC [1, 10]: 1 µM
- FICI (P. aeruginosa HM-214): 0.531
- FICI (P. aeruginosa AUMC-Pa-1): 0.156
- FICI (P. aeruginosa AUMC-Pa-2): 0.563
- MIC (P. aeruginosa AUMC-Pa-3): 0.5 µM
- FICI (P. aeruginosa AUMC-Pa-3): 0.281
- MICac: MIC of the antibiotic in the combination (P. aeruginosa AUMC-Pa-3): 0.125
- MIC (P. aeruginosa AUMC-Pa-6): 0.25 µM
- FICI (P. aeruginosa AUMC-Pa-6): 1.063
- MICac: MIC of the antibiotic in the combination (P. aeruginosa AUMC-Pa-6): 0.25/0.25
- MIC (P. aeruginosa AUMC-Pa-5): 0.5 µM
- FICI (P. aeruginosa AUMC-Pa-5): 2.063
- MICac: MIC of the antibiotic in the combination (P. aeruginosa AUMC-Pa-5): 1
- MIC (P. aeruginosa PAO1): 1 µM
- FICI (P. aeruginosa PAO1; antibiotic + 2 μM D-11): 0.125
- FICI (P. aeruginosa PAO1; antibiotic + 4 μM D-11): 0.156
- MICac: the MIC for the antibiotic in the combination (P. aeruginosa PAO1; with 2 μM D-11): 0.0625 µM
- MICac: the MIC for the antibiotic in the combination (P. aeruginosa PAO1; with 4 μM D-11): 0.03125 µM
- MIC (P. aeruginosa AUMC-Pa-4): 0.5 µM
- FICI (P. aeruginosa AUMC-Pa-4): 0.531
- MICac: MIC of the antibiotic in the combination (P. aeruginosa AUMC-Pa-4): 0.25
- MIC (P. aeruginosa PA14; Pseudomonas aeruginosa, PA14, 18 h, read-out: MICa: MIC of the antibiotic): 0.5 µM
- FICI (P. aeruginosa PA14; strain PA14): 0.531
- MICac: MIC of the antibiotic in the combination (P. aeruginosa PA14; strain PA14, unit not given): 0.25
- MIC (P. aeruginosa ATCC27853; Pseudomonas aeruginosa, ATCC27853, 18 h, read-out: MICa: MIC of the antibiotic): 1 µM
- FICI (P. aeruginosa ATCC27853; strain ATCC27853): 0.250
- MICac: MIC of the antibiotic in the combination (P. aeruginosa ATCC27853; [11]): 0.125
- MIC (P. aeruginosa NR-31041): 1 µM
- FICI (P. aeruginosa NR-31041): 0.313
- MICac: MIC of the antibiotic in the combination (P. aeruginosa NR-31041): 0.25
- MIC (P. aeruginosa PAK): 0.5 µM
- FICI (P. aeruginosa PAK): 0.563
- MICac: MIC of the antibiotic in the combination (P. aeruginosa PAK): 0.25
- MIC (P. aeruginosa NR-31040): 1 µM
- FICI (P. aeruginosa NR-31040): 0.281
- MICac: MIC of the antibiotic in the combination (P. aeruginosa NR-31040): 0.25
